In US20030187240A1, “2' -modified oligonucleotides” (ISIS Pharmaceuticals, Inc., priority 1990, published 2003):
d = 2'-deoxy (DNA); f = 2'-fluoro

Tests used:
[1] = tested on: complementary RNA strand (the sense strand); test: Thermal melting analysis of 2′-deoxy-2′-fluoro modified oligonucleotides (Table 1); type: binding
[2] = tested on: RNA complement “Y” strand ribo(3′GAG CAU GGY AAG GCC AGG5′); test: Base-pair specificity: single base-pair mismatches and a bulge (Table 2); type: binding
Method: The ability of the 2′-modified oligonucleotides to hybridize to their complementary RNA or DNA sequences was determined by thermal melting analysis. The RNA complement was synthesized from T7 RNA polymerase and a template-promoter of DNA synthesized with an Applied Biosystems, Inc. 380B RNA species was purified by ion exchange using FPLC (LKB Pharmacia, Inc.). Natural antisense oligonucleotides or those containing 2′-modifications at specific locations were added to either the RNA or DNA complement at stoichiometric concentrations and the absorbance (260 nm) hyperchromicity upon duplex to random coil transition was monitored using a Gilford Response II spectrophotometer. These measurements were performed in a buffer of 10 mM Na-phosphate, pH 7.4, 0.1 mM EDTA, and NaCl to yield an ionic strength of 10 either 0.1 M or 1.0 M. Data was analyzed by a graphic representation of 1/Tm vs ln[Ct], where [Ct] was the total oligonucleotide concentration. From this analysis the thermodynamic parameters were determined. Based upon the information gained concerning the stability of the duplex of heteroduplex formed, the placement of modified pyrimidine into oligonucleotides were assessed for their effects on helix stability.
Base-pair specificity of 2′-deoxy-2′-fluoro modified oligonucleotides with the RNA complement (a “Y” strand) was determined by effecting single base-pair mismatches and a bulge. […] In Table 2, the underlined nucleotides represent nucleotides that include a 2′-deoxy-2′-fluoro substituent.

[3] = G°37, antisense strand duplexed with RNA sense strand
[4] = first Tm column, duplex with RNA sense strand
[5] = difference (delta Tm) to the unmodified strand
[6] = difference to the unmodified strand
[7] = Y = C, mismatch, difference to Watson-Crick
[8] = Y = G, mismatch, difference to Watson-Crick
[9] = Y = None, bulged T/U, difference to Watson-Crick
[10] = Y = U, mismatch, difference to Watson-Crick

CTC GTA CCT TCC GGT CC (CTCGTACCTTCCGGTCC; listed as DNA, chemistry not fully specified) [reference compound]
G°37 [1, 3]: -14.57 ± 0.13 kcal/mol | Tm (° C.) [1, 4]: 61.6 °C

CUC GUA CCU UCC GGU CC (CUCGUACCUUCCGGUCC; 2'-deoxy-2'-fluoro A, T, C, chemistry not fully specified)
G°37 [1, 3]: -27.81 ± 0.05 kcal/mol | Tm (° C.) [1, 5]: +1.4 °C | G°37 [1, 6]: -13.24 ± 0.14 kcal/mol | Tm (° C.) [1, 4]: 81.6 °C

deoxy(CTC GTA CCT TTC CGG TCC) (CTCGTACCTTTCCGGTCC; DNA, backbone not given here) [reference compound]
G°37 ([2]; Y = A, Watson-Crick): -14.57 ± 0.13 kcal/mol | Tm (° C.) ([2]; Y = A, Watson-Crick): 61.6 °C | G°37 ([2]; Y = C, mismatch): -12.78 ± 0.11 kcal/mol | Tm (° C.) ([2]; Y = C, mismatch): 54.4 °C | G°37 [2, 7]: 1.79 ± 0.17 kcal/mol | Tm (° C.) [2, 7]: −7.2 °C | G°37 ([2]; Y = G, mismatch): -16.39 ± 0.25 kcal/mol | Tm (° C.) ([2]; Y = G, mismatch): 61.7 °C | G°37 [2, 8]: -1.82 ± 0.28 kcal/mol | Tm (° C.) [2, 8]: 0.1 °C | G°37 ([2]; Y = None, bulged T/U): -14.86 ± 0.35 kcal/mol | Tm (° C.) ([2]; Y = None, bulged T/U): 59.4 °C | G°37 [2, 9]: -0.284 ± 0.37 kcal/mol | Tm (° C.) [2, 9]: −2.2 °C | G°37 ([2]; Y = U, mismatch): -13.48 ± 0.17 kcal/mol | Tm (° C.) ([2]; Y = U, mismatch): 55.9 °C | G°37 [2, 10]: 1.09 ± 0.22 kcal/mol | Tm (° C.) [2, 10]: −5.7 °C

deoxy(CUC GUA CCU UUC CGG UCC) (CUCGUACCUUUCCGGUCC; sugars from the 5' end fffdfffffffffddffd, backbone, methylation of C and T or U not given here)
G°37 ([2]; Y = A, Watson-Crick): -27.80 ± 0.05 kcal/mol | Tm (° C.) ([2]; Y = A, Watson-Crick): 81.6 °C | G°37 ([2]; Y = C, mismatch): -21.98 ± 0.28 kcal/mol | Tm (° C.) ([2]; Y = C, mismatch): 73.8 °C | G°37 [2, 7]: 5.82 ± 0.28 kcal/mol | Tm (° C.) [2, 7]: −7.8 °C | G°37 ([2]; Y = G, mismatch): -21.69 ± 0.16 kcal/mol | Tm (° C.) ([2]; Y = G, mismatch): 77.8 °C | G°37 [2, 8]: 6.12 ± 0.17 kcal/mol | Tm (° C.) [2, 8]: −3.8 °C | G°37 ([2]; Y = None, bulged T/U): -22.87 ± 0.27 kcal/mol | Tm (° C.) ([2]; Y = None, bulged T/U): 75.5 °C | G°37 [2, 9]: 4.94 ± 0.27 kcal/mol | Tm (° C.) [2, 9]: −6.2 °C | G°37 ([2]; Y = U, mismatch): -18.68 ± 0.15 kcal/mol | Tm (° C.) ([2]; Y = U, mismatch): 73.6 °C | G°37 [2, 10]: 9.13 ± 0.16 kcal/mol | Tm (° C.) [2, 10]: −8.0 °C | specificity of duplex formation with the RNA complement ([2]; versus like-sequenced unmodified oligonucleotide): greater specificity than a like-sequenced unmodified oligonucleotide

ps(CGA CTA TGC AAG TAC) [reference compound]
G°37 [1, 3]: -7.58 ± 0.06 kcal/mol | Tm (° C.) [1, 5]: −11.2 °C | Tm (° C.) [1, 4]: 33.9 °C

ps(CGA CUA UGC AAG UAC)
G°37 [1, 3]: -15.90 ± 0.34 kcal/mol | Tm (° C.)/subst. ([1]; delta Tm per 2′-fluoro substitution): +2.5 °C | Tm (° C.) [1, 5]: +27.0 °C | G°37 [1, 6]: -8.32 ± 0.34 kcal/mol | Tm (° C.) [1, 4]: 60.9 °C
